Test results taken from patent US5147652A, “Autobiotics and their use in eliminating nonself cells in vivo” (priority 1990, dated 1992).
One block for each compound: values may come before it.

Experiments:
[1] = format: physicochemical
[2] = tested on: blood coagulation (citrated human blood plasma); assay: Blood coagulation (i), ketoaldehyde kept 1-2 seconds before plasma added; format: biochemical; settings: 1-2 seconds contact; for d % (clotting activity): control 22; for coagulation time: control 24; for clot: control hard
Protocol: (§1) 200 microliter thromboplastin (Ortho) was mixed with 10 microliter ketoaldehyde (KA) stock solution. Then 100 microliter citrated human blood plasma was added and the clot formation time (in seconds) was measured on a Fibrionometer. The effect of the ketoaldehyde on coagulation time was evaluated by comparing the clotting time of the KA treated plasma with the untreated control. The result (d%) was read from a special chart expressing the clotting activity.
(§2) All measurements were run in triplicates. The assay was run at 37 C (waterbath) in special tubes and all solutions were prewarmed.
(i) The plasminogen and ketoaldehyde were kept for
1-2 seconds before the blood plasma was added.

[3] = tested on: cell division; settings: Stein and co-workers; cited from earlier work
[4] = tested on: blood coagulation (normal plasma); assay: Blood coagulation (ii)(b), normal plasma; format: biochemical, human
Protocol: as §1, §2
(§3) (ii) The plasminogen and KA were incubated for
(§4) varying time before the blood plasma was added.
(b) with normal plasma: clotting time = 11. 7 sec

[5] = tested on: Candida albicans; assay: Effect on proliferation of Candida albicans, disk on agar surface (A); format: cell-based; settings: 24 hours (*)
Protocol: Stock solutions of the following test compounds were dissolved in physiological saline. However DOV was dissolved in water.
C. albicans isolated from clinical specimens were density grown in SubbaRow's broth at 35 C. A loopful of yeast suspension was evenly spread on the surface of Muller-Hilton agar plates (7cm diameter) with a sterile cotton applicator and incubated for 12 hours. The test compounds were placed on the surface of the sensidisks (Whatmann No. 17 paper, 6mm diameter) in a volume of 5, 10, 20, and 50 μliter of stock solutions and made up a final volume of 50 μliter with saline. The plates then were placed and kept at 37 C for 24 hours (*) and 48 hours (**) when the diameters of the inhibitory rings were recorded. Photographs were also taken of plates.

[6] = in vivo half life of C14-radiolabelled free and latentiated methylglyoxal; settings: free; injected into mice
Protocol: With free alpha-ketoaldehydes, the half-life is about 30 minutes. […] Latentiation also protects host cells from the toxic effects of alpha-ketoaldehydes.

[7] = tested on: blood coagulation (plasma from a patient with prothrombin); assay: Blood coagulation (ii)(a), plasma from a patient with prothrombin; format: biochemical, human
Protocol: as §1, §2, §3, §4
(a) With plasma from a patient with prothrombin
(clotting time 26 sec d % = 19. "Normal" (healthy)

[8] = tested on: Sarcoma-180 cells; assay: Radiation enhancement in mice carrying ascitic Sarcoma-180 cells; format: in vivo
Excerpt: Ten minutes after the injection the mice were irradiated with a gamma source (612 RAD equivalent of 400 R total body radiation; calculated lethaldose:LD-50/30 days). The treatment was repeated 3 times 4 days apart. […] One day after the last radiation, the animals were sacrificed, the ascitic fluid was collected and the malignant cells were counted.

[9] = tested on: C. albicans; assay: Inhibition of C. albicans, yeast mixed in agar (B); format: cell-based; settings: 30 μl test, 24 hrs incubation; mean of twenty assays
Protocol: Stock cultured C. albicans is used. The yeast isolated from clinical specimens was stock cultured (subcultured) on semisolid trypsoy agar plates. […] Thus, from the subculture(s), transfers were made every 48 hrs into SRB to keep the experimental strain available for assays. From the 24-48 hrs SRB cultures a loopful of turbid solutions was transferred and spread on either (a) trypsoy agar plates or (b) EBM agar plates which were fortified with horse and calf serum and incubated at 36 C for 24-48 hrs. […] Plate (a) was selected for growth inhibition assay(s) with ketoaldehydes.
One milliliter of SRB culture (24-48 hrs growth) was mixed with 10 ml trypsoy agar, warmed to 38 C and rapidly poured into sterile Petri dishes (7cm), spread evenly and allowed to solidify. The selected test compounds (in 30 μl total volume, as above) were placed in sensidisks (6mm dia, Whatman #17) on the infected agar surface. The plates were incubated for 24 hrs at 37 C. The extent of inhibition, clear zones around the sensi disks, were measured and recorded. In some cases contact photorecords were also made with the plates. (The dark zones on the photos are the inhibition (no growth) areas of C. albicans.
These assays were aimed at finding the variations of inhibition due to (i) the variable amount of yeast in (ii) a three dimensional area of the plates. Each result is the statistical mean of twenty assays on different batches of C. albicans.

[10] = tested on: blood coagulation (whole blood); assay: Blood coagulation (c), trial assay with whole blood; format: biochemical; settings: control 14.9 sec
Protocol: as §1, §2
(c) A trial assay where blood plasma was replaced

[11] = tested on: Penicillum notatum; assay: Inhibition of proliferation of molds, disk assay; format: cell-based; settings: 40 hrs
Protocol: (§5) (1) Stock solutions in 26% 2 popanediol:
(§6) (3) Assay: The microorganisms were grown in Saburand's dextrose agar (Scott) at 35 C for stock cultures. For assay the spores were plated on Mueller-Hilton agar plates (7cm dia). The test compounds were applied to the plates on sensi disks (6 mm dia, Whatmann #17 paper) in volumes of 10, 20, 30, 40 microliter made up to 40 plating volume of microliter with the solvent. The plates were incubated at room temperature and in the dark for 40 hrs. The diameter of the inhibition ring around the sensi disks were measured.

[12] = tested on: Aspergillus niger; assay: Inhibition of proliferation of molds, disk assay; format: cell-based; settings: 40 hrs
Protocol: as §5, §6

- solubility limit of stock solution ([1]; physiological saline stock): limit solubility
- solubility in water ([1]; water): sparingly soluble in water
Structure (SMILES): O=CC(=O)c1ccccc1 [PhG, phenylglyoxal]
- solubility in organic solvents ([1]; chloroform, methanol, ethanol): soluble in chloroform methanol and ethanol
- d % (clotting activity) [2]: 11%
- coagulation time [2]: 35 s
- clot [2]: hard
- effect of reaction with arginine-rich surface proteins on cells [3]: cells that can not divide, and which become leaky and die
- clotting time ([4]; incubation time 120 seconds): 19.5 s
- d% ([4]; incubation time 120 seconds): 33%
- inhibition diameters ([5]; 20 μliter): 5 mm
- inhibition diameters ([5]; 50 μliter): 8 mm

Structure (SMILES): CC(=O)C=O [MG, methylglyoxal]
- half life [6]: about 30 minutes
- clotting time ([7]; incubation time 30 seconds): 39 s
- d% ([7]; incubation time 30 seconds): 15%
- clotting time ([7]; incubation time 60 seconds): 32 s
- d% ([7]; incubation time 60 seconds): 13%
- clotting time ([7]; incubation time 130 seconds): 39 s
- d% ([7]; incubation time 130 seconds): < 10%
- clotting time ([7]; incubation time 190 seconds): 41 s
- clotting time ([7]; incubation time 300 seconds): 91.8 s
- P % (promotion) ([8]; MG alone, without radiation): 4.7%
- TC % ([8]; MG alone, without radiation): 104.7%
- TC % ([8]; RAD + MG, 120 mg/kg, 612 RAD, 3 times): 7.7%
- inhibition diameters [9]: 6.0 mm
- clotting time ([10]; incubation time 70): 16.5 s
- clotting time ([10]; incubation time 150): 19.4 s
- clotting time ([10]; incubation time 180): 20.0 s
- clotting time ([10]; incubation time 240): 22.0 s
- clotting time ([10]; incubation time 360): 24.0 s
- d % (clotting activity) [2]: 20%
- coagulation time [2]: 25 s
- clot [2]: hard
- diameter of inhibition ring ([11]; 30 microliter): 8
- diameter of inhibition ring ([11]; 40 microliter): 10
- diameter of inhibition ring ([12]; 30 microliter): 7
- diameter of inhibition ring ([12]; 40 microliter): 9
- clotting time ([4]; incubation time 5 seconds): 12.9 s
- d% ([4]; incubation time 5 seconds): 96%
- clotting time ([4]; incubation time 60 seconds): 14.9 s
- d% ([4]; incubation time 60 seconds): 55%
- clotting time ([4]; incubation time 129 seconds): 15.4 s
- d% ([4]; incubation time 129 seconds): 53%
- clotting time ([4]; incubation time 240 seconds): 19.0 s
- d% ([4]; incubation time 240 seconds): 35%
- clotting time ([4]; incubation time 360 seconds): 26.9 s
- d% ([4]; incubation time 360 seconds): 26%
- clotting time ([4]; incubation time 600 seconds): > 167.0 s
- inhibition diameters ([5]; 20 μliter): 8 mm
- inhibition diameters ([5]; 50 μliter): 10 mm
